Data taken from patent US12351580B2, “NLRP3 modulators” (Innate Tumor Immunity, Inc., priority 2017, dated 2025).
Structures can show the parent of a compound that is named as a salt.

Target: T1, TLR8 (Homo sapiens, UniProt Q9NR97)
T1 construct: host or cells: HEK-Blue cells (human HEK) co-expressing TLR8 and an NF-kB/AP1-inducible SEAP reporter
T1 sequence (Q9NR97 27-1041): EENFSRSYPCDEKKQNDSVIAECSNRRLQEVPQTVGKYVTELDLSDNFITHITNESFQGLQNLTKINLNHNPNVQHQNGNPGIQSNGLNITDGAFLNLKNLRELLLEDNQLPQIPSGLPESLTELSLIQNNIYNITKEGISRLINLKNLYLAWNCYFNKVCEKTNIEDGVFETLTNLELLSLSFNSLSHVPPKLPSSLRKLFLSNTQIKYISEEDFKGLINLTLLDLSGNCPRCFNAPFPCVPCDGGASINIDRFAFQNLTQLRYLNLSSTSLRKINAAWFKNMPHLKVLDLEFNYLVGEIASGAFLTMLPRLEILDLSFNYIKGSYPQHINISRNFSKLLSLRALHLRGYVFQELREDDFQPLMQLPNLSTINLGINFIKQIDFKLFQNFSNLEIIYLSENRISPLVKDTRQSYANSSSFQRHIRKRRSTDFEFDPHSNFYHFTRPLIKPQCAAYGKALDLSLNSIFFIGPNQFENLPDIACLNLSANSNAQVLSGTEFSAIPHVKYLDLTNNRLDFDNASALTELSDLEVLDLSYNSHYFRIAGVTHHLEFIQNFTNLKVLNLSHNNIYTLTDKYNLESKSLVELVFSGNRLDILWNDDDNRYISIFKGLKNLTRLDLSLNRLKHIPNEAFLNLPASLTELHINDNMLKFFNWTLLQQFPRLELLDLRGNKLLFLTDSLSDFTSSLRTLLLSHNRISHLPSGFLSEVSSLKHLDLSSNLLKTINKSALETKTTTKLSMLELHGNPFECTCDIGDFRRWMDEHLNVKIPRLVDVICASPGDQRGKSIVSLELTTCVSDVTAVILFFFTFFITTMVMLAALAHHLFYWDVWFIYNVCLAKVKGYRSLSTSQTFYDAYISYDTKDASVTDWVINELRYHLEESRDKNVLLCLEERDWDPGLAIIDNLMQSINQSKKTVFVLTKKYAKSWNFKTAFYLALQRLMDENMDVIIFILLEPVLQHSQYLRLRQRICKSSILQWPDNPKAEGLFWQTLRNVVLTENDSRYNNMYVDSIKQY
Assay: In vitro human TLR8 binding reporter assay (HEK-Blue, NF-kB/AP1-inducible SEAP)
Type: cell-based
Outline: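 Reporter cells are plated at 15,000 per well and rested 24 h. Next day, test compounds or DMSO are dispensed, followed by 18 h incubation at 37 °C, 5% CO2.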

Row | EC50 (activity range symbols) | EC50 (numeric bounds) | SMILES
1 | > 100 µM | – | CCNCc1nc2c(N)nc3cc(-c4cc[nH]n4)ccc3c2[nH]1 [Compound 101, 2-[(Ethylamino)methyl]-7-(1H-pyrazol-3-yl)-1H-imidazo[4,5-c]quinolin-4-amine hydrochloride]
2 | > 100 µM | – | CC(=O)N(C)Cc1nc2c(N)nc3cc(-n4cccn4)ccc3c2[nH]1 [Compound 102, N-((4-Amino-7-(1H-pyrazol-1-yl)-1H-imidazo[4,5-c]quinolin-2-yl)methyl)-N-methylacetamide]
3 | > 100 µM | – | CN(Cc1nc2c(N)nc3cc(-n4cccn4)ccc3c2[nH]1)S(C)(=O)=O [Compound 119]
4 | > 100 µM | – | CN(Cc1nc2c(N)nc3cc(-c4cc[nH]n4)ccc3c2[nH]1)C(=O)C1CC1 [Compound 120]
5 | > 100 µM | – | CCN(Cc1nc2c(N)nc3cc(-c4cc[nH]n4)ccc3c2n1C)C(C)=O [Compound 121]
6 | > 100 µM | – | CCC(=O)N(C)Cc1nc2c(N)nc3cc(-c4cc[nH]n4)ccc3c2[nH]1 [Compound 122]
7 | > 100 µM | – | CCN(Cc1nc2c(N)nc3cc(-c4cc[nH]n4)ccc3c2[nH]1)S(C)(=O)=O [Compound 124]
8 | > 100 µM | – | CCC(=O)N(CC)Cc1nc2c(N)nc3cc(-c4cc[nH]n4)ccc3c2[nH]1 [Compound 125]
9 | > 100 µM | – | CCN(Cc1nc2c(N)nc3cc(-c4cc[nH]n4)ccc3c2[nH]1)C(=O)NC [Compound 128]
10 | > 100 µM | – | CC(=O)N(C)Cc1nc2c(N)nc3cc(-c4cc[nH]n4)ccc3c2[nH]1 [Compound 129]
11 | > 100 µM | – | CCN(Cc1nc2c(N)nc3cc(-n4cccn4)ccc3c2[nH]1)C(N)=O [Compound 130]
12 | > 100 µM | – | NCc1nc2c(N)nc3cc(-c4cc[nH]n4)ccc3c2[nH]1 [Compound 131]
13 | > 100 µM | – | CCN(Cc1nc2c(N)nc3cc(-n4nccn4)ccc3c2[nH]1)C(C)=O [Compound 132]
14 | > 100 µM | – | CC(c1nc2c(N)nc3cc(-c4cccnc4)ccc3c2[nH]1)N1CCCC1=O (centres unmarked) [Compound 138]
15 | > 100 µM | – | CC(=O)N(Cc1nc2c(N)nc3cc(-c4cc[nH]n4)ccc3c2[nH]1)C(C)C [Compound 140]
16 | > 100 µM | – | Nc1nc2ccc(Cl)cc2c2[nH]c(CN3CCCC3=O)nc12 [Compound 141]
17 | > 100 µM | – | CC(C)(C)OC(=O)NCc1nc2c(N)nc3cc(-c4cc[nH]n4)ccc3c2[nH]1 [Compound 142]
18 | > 100 µM | – | Nc1nc2cc(Cl)ccc2c2[nH]c(CN3CCCC3=O)nc12 [Compound 143]
19 | > 100 µM | – | Nc1nc2cc(-c3ccc(Cl)nc3)ccc2c2[nH]c(CN3CCCC3=O)nc12 [Compound 153]
20 | 20 to 100 µM | – | CCNCc1nc2c(N)nc3cc(OC)ccc3c2[nH]1 [Compound 154]
21 | > 100 µM | – | CCN(Cc1nc2c(N)nc3cc(-c4ncc[nH]4)ccc3c2[nH]1)C(=O)OC(C)(C)C [Compound 155]
22 | 20 to 100 µM | – | Nc1nc2cc(-n3ncc4ccccc43)ccc2c2[nH]c(CN3CCCC3=O)nc12 [Compound 157]

Row | EC50 (activity range symbols) | EC50 (numeric bounds) | SMILES
23 | > 100 µM | – | CCN(Cc1nc2c(N)nc3cc(OC)ccc3c2[nH]1)C(C)=O [Compound 158, N-((4-Amino-7-methoxy-1H-imidazo[4,5-c]quinolin-2-yl)methyl)-N-ethylacetamide]
24 | > 100 µM | – | CCN(Cc1nc2c(N)nc3cc(Cl)c(Cl)cc3c2[nH]1)C(C)=O [Compound 159]
25 | > 100 µM | – | CCNCc1nc2c(N)nc3cc(-c4ncc[nH]4)ccc3c2[nH]1 [Compound 162]
26 | > 100 µM | – | CCN(Cc1nc2c(N)nc3cc(-c4cc[nH]n4)ccc3c2[nH]1)CC(C)C [Compound 453, 2-{[ethyl(2-methylpropyl)amino]methyl}-7-(1H-pyrazol-3-yl)-1H-imidazo[4,5-c]quinolin-4-amine]
27 | > 100 µM | – | CCN(CC)C(=O)N(CC)Cc1nc2c(N)nc3cc(-c4cc[nH]n4)ccc3c2[nH]1 [Compound 454, 1-{[4-amino-7-(1H-pyrazol-3-yl)-1H-imidazo[4,5-c]quinolin-2-yl]methyl}-1,3,3-triethylurea]
28 | > 100 µM | – | CCN(Cc1nc2c(N)nc3cc(-c4cc[nH]n4)ccc3c2[nH]1)C(=O)N1CCOCC1 [Compound 455, N-{[4-amino-7-(1H-pyrazol-3-yl)-1H-imidazo[4,5-c]quinolin-2-yl]methyl}-N-ethylmorpholine-4-carboxamide]
29 | > 100 µM | – | CCN(Cc1nc2c(N)nc3cc(-c4cc[nH]n4)ccc3c2[nH]1)C(=O)NC(C)(C)C [Compound 456, 1-{[4-amino-7-(1H-pyrazol-3-yl)-1H-imidazo[4,5-c]quinolin-2-yl]methyl}-3-tert-butyl-1-ethylurea]
30 | > 100 µM | – | CCNC(=O)N(CC)Cc1nc2c(N)nc3cc(-c4cc[nH]n4)ccc3c2[nH]1 [Compound 457, 1-{[4-amino-7-(1H-pyrazol-3-yl)-1H-imidazo[4,5-c]quinolin-2-yl]methyl}-1,3-diethylurea]
31 | > 100 µM | – | CCN(Cc1nc2c(N)nc3cc(-c4cc[nH]n4)ccc3c2[nH]1)S(=O)(=O)N(C)C [Compound 458, 2-{[(dimethylsulfamoyl)(ethyl)amino]methyl}-7-(1H-pyrazol-3-yl)-1H-imidazo[4,5-c]quinolin-4-amine]
32 | > 100 µM | – | CCN(Cc1nc2c(N)nc3cc(-c4cc[nH]n4)ccc3c2[nH]1)S(=O)(=O)C(C)C [Compound 459, N-{[4-amino-7-(1H-pyrazol-3-yl)-1H-imidazo[4,5-c]quinolin-2-yl]methyl}-N-ethylpropane-2-sulfonamide]
33 | – | > 62 µM | CCCS(=O)(=O)N(CC)Cc1nc2c(N)nc3cc(-c4cc[nH]n4)ccc3c2[nH]1 [Compound 460, N-{[4-amino-7-(1H-pyrazol-3-yl)-1H-imidazo[4,5-c]quinolin-2-yl]methyl}-N-ethylpropane-1-sulfonamide]
34 | > 100 µM | – | CCNCc1nc2c(N)nc3cc(-c4ccn[nH]4)ccc3c2n1CCO [Compound 462, 2-[4-Amino-2-[(ethylamino)methyl]-7-(1H-pyrazol-5-yl)-1H-imidazo[4,5-c]quinolin-1-yl]ethan-1-ol]
35 | > 100 µM | – | CCn1c(CN2CCCC2=O)nc2c(N)nc3cc(-c4cccs4)ccc3c21 [Compound 463, 1-{[4-amino-1-ethyl-7-(thiophen-2-yl)-1H-imidazo[4,5-c]quinolin-2-yl]methyl}pyrrolidin-2-one]
36 | > 100 µM | – | CCNCc1nc2c(N)nc3cc(-c4ccn[nH]4)ccc3c2n1CC [Compound 464, 1-ethyl-2-[(ethylamino)methyl]-7-(1H-pyrazol-5-yl)-1H-imidazo[4,5-c]quinolin-4-amine]
37 | > 100 µM | – | CCn1c(CN2CCCC2=O)nc2c(N)nc3cc(-n4cccn4)ccc3c21 [Compound 465, 1-{[4-amino-1-ethyl-7-(1H-pyrazol-1-yl)-1H-imidazo[4,5-c]quinolin-2-yl]methyl}pyrrolidin-2-one]
38 | > 100 µM | – | CCn1c(CN2CCCC2=O)nc2c(N)nc3cc(-c4ccn[nH]4)ccc3c21 [Compound 466, 1-{[4-amino-1-ethyl-7-(1H-pyrazol-5-yl)-1H-imidazo[4,5-c]quinolin-2-yl]methyl}pyrrolidin-2-one]
39 | > 100 µM | – | CCNCc1nc2c(N)nc3cc(-n4cccn4)ccc3c2n1CC [Compound 467, 1-ethyl-2-((ethylamino)methyl)-7-(1H-pyrazol-1-yl)-1H-imidazo[4,5-c]quinolin-4-amine]
40 | > 100 µM | – | CCNCc1nc2c(N)nc3cc(-c4cccs4)ccc3c2n1CC [Compound 468, 1-ethyl-2-[(ethylamino)methyl]-7-(thiophen-2-yl)-1H-imidazo[4,5-c]quinolin-4-amine]
41 | > 100 µM | – | Nc1nc2cc(-c3cccs3)ccc2c2c1nc(CN1CCCC1=O)n2CCO [Compound 469, 1-{[4-amino-1-(2-hydroxyethyl)-7-(thiophen-2-yl)-1H-imidazo[4,5-c]quinolin-2-yl]methyl}pyrrolidin-2-one]
42 | > 100 µM | – | CCC(=O)N(CC)Cc1nc2c(N)nc3cc(-c4cccs4)ccc3c2n1CCO [Compound 470, N-{[4-amino-1-(2-hydroxyethyl)-7-(thiophen-2-yl)-1H-imidazo[4,5-c]quinolin-2-yl]methyl}-N-ethylpropanamide]
43 | > 100 µM | – | CCNCc1nc2c(N)nc3cc(-c4cccs4)ccc3c2n1CCO [Compound 471, 2-{4-amino-2-[(ethylamino)methyl]-7-(thiophen-2-yl)-1H-imidazo[4,5-c]quinolin-1-yl}ethan-1-ol]
44 | > 100 µM | – | CCN(Cc1nc2c(N)nc3cc(-c4cccs4)ccc3c2n1CC)C(C)=O [Compound 472, N-{[4-amino-1-ethyl-7-(thiophen-2-yl)-1H-imidazo[4,5-c]quinolin-2-yl]methyl}-N-ethylacetamide]
